Experimental data reported in ChEMBL document CHEMBL4265917, “Antibacterial and antioxidant activities for natural and synthetic dual-active compounds” (Eur J Med Chem, 2018).
Converted amounts (≈) assume the structure as drawn.

What was measured:
Staphylococcus aureus [1] = assay: Bactericidal activity against Staphylococcus aureus incubated for 24 hrs measured every 30 mins by spectrophotometric analysis; assay type: functional
[2] = Antioxidant activity assessed as DPPH free radical scavenging activity; assay type: functional
Escherichia coli [3] = assay: Antibacterial activity against Escherichia coli after 16 hrs by broth microdilution method; assay type: functional
Staphylococcus aureus [4] = assay: Antibacterial activity against Staphylococcus aureus after 16 hrs by broth microdilution method; assay type: functional
Bacillus mycoides = assay: Antibacterial activity against Bacillus mycoides FSB 1 after 18 to 24 hrs by microdilution method; assay type: functional
Bacillus subtilis [5] = assay: Antibacterial activity against Bacillus subtilis FSB 2 after 18 to 24 hrs by microdilution method; assay type: functional
Micrococcus luteus = assay: Antibacterial activity against Micrococcus lysodeikticus ATCC 4698 after 18 to 24 hrs by microdilution method; assay type: functional
Staphylococcus aureus [6] = assay: Antibacterial activity against Staphylococcus aureus ATCC 25923 after 18 to 24 hrs by microdilution method; assay type: functional
Staphylococcus aureus [7] = assay: Antibacterial activity against Staphylococcus aureus FSB 30 after 18 to 24 hrs by microdilution method; assay type: functional
Azotobacter chroococcum = assay: Antibacterial activity against Azotobacter chroococcum FSB 14 after 18 to 24 hrs by microdilution method; assay type: functional
Enterobacter cloacae = assay: Antibacterial activity against Enterobacter cloacae FSB 22 after 18 to 24 hrs by microdilution method; assay type: functional
[8] = test system: Pectobacterium carotovorum; assay: Antibacterial activity against Erwinia carotovora FSB 31 after 18 to 24 hrs by microdilution method; assay type: functional
Escherichia coli [9] = assay: Antibacterial activity against Escherichia coli ATCC 25922 after 18 to 24 hrs by microdilution method; assay type: functional
Klebsiella pneumoniae = assay: Antibacterial activity against Klebsiella pneumoniae FSB 26 after 18 to 24 hrs by microdilution method; assay type: functional
Pseudomonas fluorescens = assay: Antibacterial activity against Pseudomonas fluorescens FSB 28 after 18 to 24 hrs by microdilution method; assay type: functional
Pseudomonas syringae = assay: Antibacterial activity against Pseudomonas glycinea FSB 40 after 18 to 24 hrs by microdilution method; assay type: functional, Pseudomonas savastanoi pv. glycinea
[10] = test system: Pseudomonas savastanoi pv. phaseolicola; assay: Antibacterial activity against Pseudomonas phaseolicola FSB 29 after 18 to 24 hrs by microdilution method; assay type: functional
[11] = Antioxidant activity assessed as DPPH free radical scavenging activity after 30 to 60 mins by UV-vis spectrophotometric analysis; assay type: functional
Staphylococcus aureus [12] = assay: Antibacterial activity against methicillin-resistant Staphylococcus aureus after 24 hrs by microbroth dilution method; assay type: functional
Escherichia coli [13] = assay: Antibacterial activity against Escherichia coli K-12 MG1655 assessed as bacterial growth inhibition after 24 hrs by serial dilutoin method; assay type: functional; settings: K-12 substr. MG1655, 24 h
[14] = Antioxidant activity assessed as DPPH free radical scavenging activity incubated for 30 min by UV-vis spectrophotometric analysis; assay type: functional
Staphylococcus aureus [15] = assay: Bactericidal activity against Staphylococcus aureus ATCC 29213 incubated for 24 hrs by serial dilution method; assay type: functional
Staphylococcus aureus [16] = assay: Antibacterial activity against Staphylococcus aureus ATCC 29213 assessed as inhibition of bacterial growth at 25 g/L incubated for 24 hrs by serial dilution method relative to cntrol; assay type: functional; settings: ATCC 29213, 24 h, read-out: GI
Staphylococcus aureus [17] = assay: Antibacterial activity against methicillin-resistant Staphylococcus aureus; assay type: functional
Escherichia coli [18] = assay: Antibacterial activity against Escherichia coli KCTC 1924 after 20 to 36 hrs by disc diffusion method; assay type: functional
Staphylococcus aureus [19] = assay: Antibacterial activity against Staphylococcus aureus KCTC 1916 after 20 to 36 hrs by disc diffusion method; assay type: functional
Staphylococcus aureus [20] = assay: Antibacterial activity against Staphylococcus aureus after 17 hrs by NCCLS broth microdilution method; assay type: functional
Bacillus cereus = assay: Antibacterial activity against Bacillus cereus after 17 hrs by NCCLS broth microdilution method; assay type: functional
Bacillus subtilis [21] = assay: Antibacterial activity against Bacillus subtilis after 17 hrs by NCCLS broth microdilution method; assay type: functional
Listeria monocytogenes = assay: Antibacterial activity against Listeria monocytogenes after 17 hrs by NCCLS broth microdilution method; assay type: functional
Escherichia coli [22] = assay: Antibacterial activity against Escherichia coli after 17 hrs by NCCLS broth microdilution method; assay type: functional
Salmonella typhimurium = assay: Antibacterial activity against Salmonella typhimurium after 17 hrs by NCCLS broth microdilution method; assay type: functional, Salmonella enterica subsp. enterica serovar Typhimurium; settings: Salmonella enterica
Vibrio cholerae = assay: Antibacterial activity against Vibrio cholerae after 17 hrs by NCCLS broth microdilution method; assay type: functional
Campylobacter jejuni = assay: Antibacterial activity against Campylobacter jejuni after 17 hrs by NCCLS broth microdilution method; assay type: functional
Campylobacter coli = assay: Antibacterial activity against Campylobacter coli after 17 hrs by NCCLS broth microdilution method; assay type: functional
Aliarcobacter butzleri = assay: Antibacterial activity against Arcobacter butzleri after 17 hrs by NCCLS broth microdilution method; assay type: functional
[23] = test system: Aliarcobacter cryaerophilus; assay: Antibacterial activity against Arcobacter cryaerophilus after 17 hrs by NCCLS broth microdilution method; assay type: functional
[24] = Antioxidant activity assessed as trolox equivalent of AAPH-induced radical scavenging activity preincubated for 30 mins followed by […] challenge measured every 1.14 mins for 120 mins by ORAC-FL assay; assay type: functional
[25] = Antioxidant activity assessed as ABTS radical scavenging activity by measuring trolox equivalence of antioxidant capacity at 1 uM up to 24 hrs by spectrophotometric analysis; assay type: functional
[26] = Antioxidant activity assessed as reduction of Fe3+-TPTZ to Fe2+-TPTZ by measuring trolox equivalence of antioxidant capacity by FRAP assay; assay type: functional
Staphylococcus aureus [27] = assay: Antibiofilm activity against methicillin-resistant Staphylococcus aureus at 100 ug/ml after 18 hrs by crystal violet staining-based method relative to control; assay type: functional
Staphylococcus aureus [28] = assay: Antibiofilm activity against methicillin-resistant Staphylococcus aureus at 150 ug/ml after 18 hrs by crystal violet staining-based method relative to control; assay type: functional

Molecule `COc1ccccc1O` [GUAIACOL] has an MBC (Staphylococcus aureus [1]) of no less than 15 mM and an IC50 [2] of 4.1 µg/mL (≈ 33 µM).

In the case of `Cc1ccc(C(C)C)c(O)c1` [THYMOL], the MIC (Escherichia coli [3]) is reported as 2.5 µg/mL (≈ 16.6 µM) and the MIC (Staphylococcus aureus [4]) is reported as 2.5 µg/mL (≈ 16.6 µM).

`CC(Nc1ccc([N+](=O)[O-])cc1)c1c(O)c2ccccc2oc1=O` (centres undefined) gave an MIC (Bacillus mycoides) of 3.9 to 31.2 µg/mL (≈ 12 to 95.6 µM), an MIC (Bacillus subtilis [5]) of 3.9 to 31.2 µg/mL (≈ 12 to 95.6 µM) and an MIC (Micrococcus luteus) of 3.9 to 31.2 µg/mL (≈ 12 to 95.6 µM). For the same molecule, the MIC (Staphylococcus aureus [6]) was 3.9 to 31.2 µg/mL (≈ 12 to 95.6 µM), the MIC (Staphylococcus aureus [7]) was 3.9 to 31.2 µg/mL (≈ 12 to 95.6 µM) and the MIC (Azotobacter chroococcum) was 3.9 to 31.2 µg/mL (≈ 12 to 95.6 µM). For the same molecule, the MIC (Enterobacter cloacae) was 3.9 to 31.2 µg/mL (≈ 12 to 95.6 µM), the MIC [8] was 3.9 to 31.2 µg/mL (≈ 12 to 95.6 µM) and the MIC (Escherichia coli [9]) was 3.9 to 31.2 µg/mL (≈ 12 to 95.6 µM). The MIC (Klebsiella pneumoniae) was 3.9 to 31.2 µg/mL (≈ 12 to 95.6 µM), the MIC (Pseudomonas fluorescens) was 3.9 to 31.2 µg/mL (≈ 12 to 95.6 µM) and the MIC (Pseudomonas syringae) was 3.9 to 31.2 µg/mL (≈ 12 to 95.6 µM). The MIC [10] was 3.9 to 31.2 µg/mL (≈ 12 to 95.6 µM) and the IC50 [11] was 26 µM.

`COc1ccccc1NC(=O)COc1ccc(/C=C/c2cc(/C=C/c3ccc(OCC(=O)Nc4ccccc4OC)c(OC)c3)[nH]n2)cc1OC` gave an MIC (Staphylococcus aureus [12]) of 10 to 20 µg/mL (≈ 14.5 to 29 µM).

For `O=C(/C=C/c1ccc(O)c(O)c1)O[C@@H]1C[C@@](O)(C(=O)O)C[C@@H](O)[C@@H]1O`, the EC50 [2] was 13.4 µg/mL (≈ 37.8 µM).

In the case of `COc1cc(/C=C/c2cc(/C=C/c3ccc(OCC(=O)Nc4cccc(C(F)(F)F)c4)c(OC)c3)[nH]n2)ccc1OCC(=O)Nc1cccc(C(F)(F)F)c1`, the MIC (Staphylococcus aureus [12]) is reported as 10 to 20 µg/mL (≈ 13 to 26.1 µM).

With `O=C(/C=C/c1ccc(O)c(O)c1)O[C@H](Cc1ccc(O)c(O)c1)C(=O)O` [ROSMARINIC ACID] the MIC (Escherichia coli [13]) was 250 µg/mL (≈ 694 µM) and the IC50 [14] was 0.4 µg/mL (≈ 1.11 µM).

For `COc1cc(N)ccc1O`, the MBC99 (Staphylococcus aureus [15]) was 10 mM (≈ 1390 µg/mL) and the inhibition of growth at 25000 µg/mL (Staphylococcus aureus [16]) was 93%.

Molecule `COc1cc(/C=C/c2cc(/C=C/c3ccc(OCC(=O)N[C@H](C)c4ccccc4)c(OC)c3)[nH]n2)ccc1OCC(=O)N[C@H](C)c1ccccc1` has an MIC (Staphylococcus aureus [12]) of 10 to 20 µg/mL (≈ 14.6 to 29.1 µM).

Molecule `Cc1ccc(C(C)C)cc1O` [CARVACROL] has an MIC (Escherichia coli [3]) of 2.5 µg/mL (≈ 16.6 µM) and an MIC (Staphylococcus aureus [4]) of 1.25 µg/mL (≈ 8.32 µM).

With `COc1cc(/C=C/C(=O)CC(=O)/C=C/c2ccc(O)c(OC)c2)ccc1O` [CURCUMIN] the IC50 [2] was 28 µg/mL (≈ 76 µM) and the MIC (Staphylococcus aureus [17]) was 125 to 250 µg/mL (≈ 339 to 679 µM).

For `C=CCc1ccc(O)c(OC)c1` [EUGENOL], the MIC (Escherichia coli [3]) was 2.5 µg/mL (≈ 15.2 µM) and the MIC (Staphylococcus aureus [4]) was 2.5 µg/mL (≈ 15.2 µM).

`Oc1ccc2cc(Br)ccc2c1-c1c[nH]c2ccccc12` showed an EC50 [14] of 3.8 µg/mL (≈ 11.2 µM), an MIC (Escherichia coli [18]) of 5.32 µg/mL (≈ 15.7 µM) and an MIC (Staphylococcus aureus [19]) of 14.8 µg/mL (≈ 43.8 µM).

With `Oc1ccc(/C=C/c2cc(O)cc(O)c2)cc1` [RESVERATROL] the MIC (Staphylococcus aureus [20]) was 16.5 to 260 µg/mL (≈ 72.3 to 1140 µM), the MIC (Bacillus cereus) was 16.5 to 260 µg/mL (≈ 72.3 to 1140 µM) and the MIC (Bacillus subtilis [21]) was 16.5 to 260 µg/mL (≈ 72.3 to 1140 µM). For the same molecule, the MIC (Listeria monocytogenes) was 16.5 to 260 µg/mL (≈ 72.3 to 1140 µM), the MIC (Escherichia coli [22]) was 0.625 to 521 µg/mL (≈ 2.74 to 2280 µM) and the MIC (Salmonella typhimurium) was 0.625 to 521 µg/mL (≈ 2.74 to 2280 µM). It also gave an MIC (Vibrio cholerae) of 0.625 to 521 µg/mL (≈ 2.74 to 2280 µM), an MIC (Campylobacter jejuni) of 0.625 to 521 µg/mL (≈ 2.74 to 2280 µM) and an MIC (Campylobacter coli) of 0.625 to 521 µg/mL (≈ 2.74 to 2280 µM). The MIC (Aliarcobacter butzleri) was 0.625 to 521 µg/mL (≈ 2.74 to 2280 µM), the MIC [23] was 0.625 to 521 µg/mL (≈ 2.74 to 2280 µM) and the Activity [24] was 3.67 mM. It also gave an Activity [25] of 1.57 mM, an Activity [26] of 0.47 mM and an inhibition at 100 µg/mL (Staphylococcus aureus [27]) of 39.9%. For the same molecule, the inhibition at 150 µg/mL (Staphylococcus aureus [28]) was 23.4%.

In the case of `COc1cc(/C=C/c2cc(/C=C/c3ccc(OCC(=O)Nc4cc(Cl)cc(Cl)c4)c(OC)c3)[nH]n2)ccc1OCC(=O)Nc1cc(Cl)cc(Cl)c1`, the MIC (Staphylococcus aureus [12]) is reported as 10 to 20 µg/mL (≈ 13 to 26 µM).

Molecule `COc1cc(/C=C/c2cc(/C=C/c3ccc(OCC(=O)N[C@@H](C)c4ccccc4)c(OC)c3)[nH]n2)ccc1OCC(=O)N[C@@H](C)c1ccccc1` has an MIC (Staphylococcus aureus [12]) of 10 to 20 µg/mL (≈ 14.6 to 29.1 µM).

For `COc1cc(/C=C/c2cc(/C=C/c3ccc(OCC(=O)Nc4cccc(C(C)=O)c4)c(OC)c3)[nH]n2)ccc1OCC(=O)Nc1cccc(C(C)=O)c1`, the MIC (Staphylococcus aureus [12]) was 10 to 20 µg/mL (≈ 14 to 28 µM).
